The test system of the assay is P388 leukemia ip, CD2F1 mice, survival T/C. In words: NCI In Vivo Anticancer Drug Screen. Data for tumor model P388 Leukemia (intraperitoneal) in CD2F1 (CDF1) mice. To be noted: endpoint: median survival time, higher = longer survival. In short, it runs like this:
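Mice carrying the transplanted tumor received test compound or vehicle. Survival was recorded in each group, and the value is the treated-group measurement divided by that of the vehicle-treated control group.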

The mark [1] stands for this setting: dose: 25.0 mg/kg/injection, schedule: Q01DX009 (ip), vehicle: saline with Tween-80.
Where [2] appears, read: dose: 50.0 mg/kg/injection, schedule: Q01DX009 (ip), vehicle: saline with Tween-80.
The mark [3] stands for this setting: dose: 100.0 mg/kg/injection, schedule: Q01DX001 (ip), vehicle: saline with Tween-80.
Setting [4] is: dose: 50.0 mg/kg/injection, schedule: Q01DX005 (ip), vehicle: Klucel (hydroxypropylcellulose) (HPC).
Where [5] appears, read: dose: 100.0 mg/kg/injection, schedule: Q01DX005 (ip), vehicle: Klucel (hydroxypropylcellulose) (HPC).
The mark [6] stands for this setting: dose: 100.0 mg/kg/injection, schedule: Q01DX009 (ip), vehicle: saline with Tween-80.
Where [7] appears, read: dose: 60.0 mg/kg/injection, schedule: Q01DX005 (ip), vehicle: saline with Tween-80.
[8] abbreviates: dose: 120.0 mg/kg/injection, schedule: Q01DX005 (ip), vehicle: saline with Tween-80.
The mark [9] stands for this setting: dose: 240.0 mg/kg/injection, schedule: Q01DX005 (ip), vehicle: saline with Tween-80.
Setting [10] is: dose: 25.0 mg/kg/injection, schedule: Q01DX009 (ip), vehicle: Klucel (hydroxypropylcellulose) (HPC).
Setting [11] is: dose: 50.0 mg/kg/injection, schedule: Q01DX009 (ip), vehicle: Klucel (hydroxypropylcellulose) (HPC).
Where [12] appears, read: dose: 100.0 mg/kg/injection, schedule: Q01DX009 (ip), vehicle: Klucel (hydroxypropylcellulose) (HPC).
Where [13] appears, read: dose: 200.0 mg/kg/injection, schedule: Q01DX009 (ip), vehicle: Klucel (hydroxypropylcellulose) (HPC).
[14] abbreviates: dose: 25.0 mg/kg/injection, schedule: Q01DX005 (ip), vehicle: Klucel (hydroxypropylcellulose) (HPC).
Setting [15] is: dose: 200.0 mg/kg/injection, schedule: Q01DX009 (ip), vehicle: saline with Tween-80.

Values joined by “and” are separate entries in the source; they are usually repeats but may differ in a detail not shown here. Identical values can stand only once. Toxic doses and inconclusive results are not listed.

Results on 23 molecules are retold here after PubChem BioAssay AID330 (DTP/NCI, 2004).

Take `O=C1c2ccccc2C(=O)c2c(O)c(NCCNCCO)cc(O)c21`: the T/C is 113 % of control (dose: 1.25 mg/kg/injection, schedule: Q01DX009 (ip), vehicle: acid diluted with saline); 98 % of control and 104 % of control (dose: 2.5 mg/kg/injection, schedule: Q01DX009 (ip), vehicle: acid diluted with saline); 117 % of control and 122 % of control (dose: 5.0 mg/kg/injection, schedule: Q01DX009 (ip), vehicle: acid diluted with saline); 108 % of control and 124 % of control (dose: 10.0 mg/kg/injection, schedule: Q01DX009 (ip), vehicle: acid diluted with saline); 104 % of control and 118 % of control (dose: 20.0 mg/kg/injection, schedule: Q01DX009 (ip), vehicle: acid diluted with saline); 108 % of control (dose: 40.0 mg/kg/injection, schedule: Q01DX009 (ip), vehicle: acid diluted with saline). The T/C (dose: 80.0 mg/kg/injection, schedule: Q01DX009 (ip), vehicle: acid diluted with saline) was 89 % of control.
As to `O=C1c2ccccc2C(Cl)(c2ccc(Cl)cc2)c2ccc(Cl)cc21` (stereo unspecified), the T/C (dose: 25.0 mg/kg/injection, schedule: Q01DX005 (ip), vehicle: saline with Tween-80) was 107 % of control.
Turning to `C=CCOc1ccncc1`, the T/C runs as follows: (dose: 12.5 mg/kg/injection, schedule: Q01DX009 (ip), vehicle: saline with Tween-80) 100 % of control; under setting [1], 95 % of control; under setting [2], 90 % of control.
For `Ic1ccc([I+]c2ccc(I)cc2)cc1`, the T/C (dose: 25.0 mg/kg/injection, schedule: Q01DX001 (ip), vehicle: saline with Tween-80) was 100 % of control; the T/C (dose: 50.0 mg/kg/injection, schedule: Q01DX001 (ip), vehicle: saline with Tween-80) was 99 % of control; the T/C under setting [3] was 95 % of control; the T/C (dose: 200.0 mg/kg/injection, schedule: Q01DX001 (ip), vehicle: saline with Tween-80) is 100 % of control; the T/C (dose: 400.0 mg/kg/injection, schedule: Q01DX001 (ip), vehicle: saline with Tween-80) is 100 % of control.
On to `NC(=O)CCSC(N)=S`, for which the T/C under setting [4] is 100 % of control; the T/C under setting [5] is 109 % of control; the T/C (dose: 200.0 mg/kg/injection, schedule: Q01DX005 (ip), vehicle: Klucel (hydroxypropylcellulose) (HPC)) is 100 % of control.
Take `Nc1nc(N)nc(N2CCCC2)n1`: the T/C was 101 % of control under setting [1], 97 % of control under setting [2] and 92 % of control under setting [6].
For `CC(C)SC(=S)Nc1ccc(Cl)c(C(F)(F)F)c1`, the T/C was 106 % of control (dose: 50.0 mg/kg/injection, schedule: Q01DX009 (ip), vehicle: saline); 105 % of control (dose: 100.0 mg/kg/injection, schedule: Q01DX009 (ip), vehicle: saline); 110 % of control (dose: 200.0 mg/kg/injection, schedule: Q01DX009 (ip), vehicle: saline).
`COC(=O)C1(CC(=O)c2ccc(F)cc2)NC(=S)NC(=O)C1C#N` (stereo unspecified): the T/C was 99 % of control under setting [7], 98 % of control under setting [8] and 106 % of control under setting [9].
On to `O=c1[nH]cc([N+](=O)[O-])c(=O)[nH]1`, for which the T/C by setting is: under setting [10], 94 % of control; under setting [11], 99 % of control; under setting [12], 95 % of control; (dose: 100.0 mg/kg/injection, schedule: Q01DX009 (ip), vehicle: distilled water + Tween-80) 102 % of control; under setting [13], 107 % of control; (dose: 200.0 mg/kg/injection, schedule: Q01DX009 (ip), vehicle: distilled water + Tween-80) 100 % of control. The T/C (dose: 400.0 mg/kg/injection, schedule: Q01DX009 (ip), vehicle: distilled water + Tween-80) is 99 % of control.
Take `C=CCc1ccc(O)cc1`: the T/C was 93 % of control under setting [10], 99 % of control under setting [11], 107 % of control under setting [12] and 99 % of control under setting [13].
On to `CC12COC(=O)CC1CCC1C2CCC2(C)C1CCC2(C)O` (stereo unspecified), for which the T/C (dose: 100.0 mg/kg/injection, schedule: Q04DX003 (ip), vehicle: saline with Tween-80) was 95 % of control and the T/C (dose: 200.0 mg/kg/injection, schedule: Q04DX003 (ip), vehicle: saline with Tween-80) is 104 % of control.
In the case of `O=C1c2ccccc2C(=O)C2C1C1(c3ccccc3)OC2(c2ccccc2)c2ccccc21` (stereo unspecified), the T/C reads like this: under setting [14], 101 % of control; under setting [4], 99 % of control; under setting [5], 101 % of control.
Take `O=[N+]([O-])c1cc(Cl)c(Cl)cc1Cl`: the T/C under setting [2] was 109 % of control, the T/C under setting [6] is 100 % of control and the T/C under setting [15] was 104 % of control.
On to `CCCCN(CCCC)C(=N)c1c(OC)cccc1OC`, for which the T/C is, setting by setting: (dose: 0.78 mg/kg/injection, schedule: Q01DX005 (ip), vehicle: saline) 104 % of control; (dose: 1.56 mg/kg/injection, schedule: Q01DX005 (ip), vehicle: saline) 99 % of control; (dose: 3.12 mg/kg/injection, schedule: Q01DX005 (ip), vehicle: saline) 96 % of control.
For the molecule `Cc1ccc(N=Nc2c(-c3cccs3)nn(C(N)=S)c2C(F)(F)F)cc1`, the T/C is 103 % of control (dose: 12.5 mg/kg/injection, schedule: Q01DX005 (ip), vehicle: Klucel (hydroxypropylcellulose) (HPC)); 98 % of control under setting [14]; 98 % of control under setting [4].
`Cc1ccc(COc2ccc(Cl)cc2Cn2ccnc2)cc1`: the T/C was 104 % of control (dose: 25.0 mg/kg/injection, schedule: Q04DX002 (ip), vehicle: saline); 106 % of control (dose: 50.0 mg/kg/injection, schedule: Q04DX002 (ip), vehicle: saline); 106 % of control and 116 % of control (dose: 100.0 mg/kg/injection, schedule: Q04DX002 (ip), vehicle: saline).
Take `CCCCCCC1(/C=C\c2ccc(Cl)cc2Cl)OCCO1`: the T/C under setting [11] is 103 % of control, the T/C under setting [12] was 110 % of control and the T/C under setting [13] was 101 % of control.
With `O=C1C=C(NCCc2cc3c(cc2Br)OCO3)CCC1`, the T/C was 97 % of control (dose: 100.0 mg/kg/injection, schedule: Q04DX002 (ip), vehicle: saline with Tween-80); 91 % of control (dose: 200.0 mg/kg/injection, schedule: Q04DX002 (ip), vehicle: saline with Tween-80); 95 % of control (dose: 400.0 mg/kg/injection, schedule: Q04DX002 (ip), vehicle: saline with Tween-80).
With `c1ccc(CN2CCCC3CCCC32)cc1` (stereo unspecified), the T/C under setting [3] is 97 % of control.
For the molecule `CCOC(=O)C1=C(C)N(Cc2ccccc2)C(C)=C(C(=O)OCC)C1(C)C`, the T/C by setting is: under setting [6], 104 % of control; under setting [15], 118 % of control; (dose: 400.0 mg/kg/injection, schedule: Q01DX009 (ip), vehicle: saline with Tween-80) 118 % of control.
For the molecule `CC[C@H]1C[C@H]2CN(CCc3c([nH]c4ccccc34)[C@@](C(=O)OC)(c3cc4c(cc3OC)N(C=O)[C@H]3[C@@](O)(C(=O)OC)[C@H](OC(C)=O)[C@]5(CC)C=CCN6CC[C@]43[C@@H]65)C2)C1`, the T/C was 155 % of control (dose: 0.5 mg/kg/injection, schedule: Q01DX001 (ip), vehicle: water); 156 % of control and 174 % of control (dose: 1.0 mg/kg/injection, schedule: Q01DX001 (ip), vehicle: water); 180 % of control (dose: 2.0 mg/kg/injection, schedule: Q01DX001 (ip), vehicle: water); 90 % of control (dose: 4.0 mg/kg/injection, schedule: Q01DX001 (ip), vehicle: water).
Turning to `CCN(CC)CCNc1cccc2oc3ccc(OS(=O)(=O)c4ccc(C)cc4)cc3c(=O)c12`, the T/C is 97 % of control (dose: 50.0 mg/kg/injection, schedule: Q01DX005 (ip), vehicle: saline with Tween-80); 100 % of control (dose: 100.0 mg/kg/injection, schedule: Q01DX005 (ip), vehicle: saline with Tween-80); 102 % of control (dose: 200.0 mg/kg/injection, schedule: Q01DX005 (ip), vehicle: saline with Tween-80).
For `NC(=S)NNC(=O)CCC(=O)Nc1ccccc1Cl`, the T/C under setting [7] was 103 % of control, the T/C under setting [8] was 102 % of control and the T/C under setting [9] is 99 % of control.
